Earlier results as cited in patent publication US6127342A, “Method for preventing or treating a lung disease caused by active oxygen and free radical injury” (Teijin Limited, priority 1991, dated 2000).

Test system: glutathione peroxidase
Details: Flohe, et al.; cited from earlier work

In the case of `COC(=O)[C@H](CS)NC(=O)CC[C@H](N)C(=O)O`, the “efficiency as substrate of glutathione peroxidase compared with glutathione” value is given as 20-30%.
